Measurements taken from patent US7705025B2, “Histamine H3 receptor agents, preparation and therapeutic uses” (Eli Lilly and Company, priority 2004, dated 2010).

Molecular target: T1, human histamine 3 receptor (Homo sapiens, UniProt Q9Y5N1)
T1 construct: expressed in transfected cells; membranes
Assay: H3R binding assay (competitive inhibition SPA, [3H] α methylhistamine)
Conditions: membranes of HEK293 clone H3R8
Excerpt: The compounds of the present invention can readily be evaluated by using a competitive inhibition Scintillation Proximity Assay (SPA) based on a H3R binding assay using [3H] α methylhistamine as ligand. Stable cell lines, including but not limited to HEK can be transfected with cDNA coding for H3R to prepare membranes used for the binding assay. The technique is illustrated below (Preparation of Histamine Receptor Subtype Membranes) for the histamine receptor subtypes.
cDNA for the human histamine 1 receptor (H1R) was cloned into a mammalian expression vector containing the CMV promoter (pcDNA3.1(+), Invitogen) and transfected into HEK293 cells using the FuGENE Tranfection Reagent (Roche Diagnostics Corporation). Transfected cells were selected using G418 (500 μ/mL). Colonies that survived selection were grown and tested for histamine binding to cells grown in 96-well dishes using a scintillation proximity assay (SPA) based radioligand binding assay. Briefly, cells, representing individual selected clones, were grown as confluent monolayers in 96-well dishes (Costar Clear Bottom Plates, #3632) by seeding wells with 25,000 cells and growing for 48 hours (37° C., 5% CO2). […] Plates were counted in a Wallac Trilux 1450 Microbeta scintillation counter. […]
cDNA for the human histamine 3 receptor was cloned and expressed as described in (A. Preparation H1R membranes), above. […]

T1 sequence (Q9Y5N1 whole entry): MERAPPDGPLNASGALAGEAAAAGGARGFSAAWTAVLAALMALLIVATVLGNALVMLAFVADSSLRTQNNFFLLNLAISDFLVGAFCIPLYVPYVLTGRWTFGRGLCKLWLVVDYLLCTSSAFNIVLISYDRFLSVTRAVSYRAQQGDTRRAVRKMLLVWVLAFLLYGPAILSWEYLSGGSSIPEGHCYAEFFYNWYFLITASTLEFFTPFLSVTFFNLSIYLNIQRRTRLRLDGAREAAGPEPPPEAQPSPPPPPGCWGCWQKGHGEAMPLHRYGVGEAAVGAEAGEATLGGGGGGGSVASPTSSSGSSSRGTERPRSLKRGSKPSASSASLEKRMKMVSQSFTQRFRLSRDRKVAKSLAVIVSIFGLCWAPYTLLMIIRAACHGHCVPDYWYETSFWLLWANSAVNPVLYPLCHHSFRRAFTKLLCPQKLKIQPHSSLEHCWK

| Ki [nM] | Structure (SMILES) |
| --- | --- |
| 13.8 | O=C(c1ccc(-c2cccs2)nc1)N1CCC[C@H]1CN1CCCC1 |
| 3.1 | O=C(c1ccc(-c2nc(-c3cccnc3)cs2)cc1)N1CCC[C@H]1CN1CCCC1 |
